Experimental data as given in PMC9558423 (Molecular nutrition & food research, 2020).
Where two headings read alike, the source gives them in different places. Marks after values point to notes of the source that are not given here.

How the values were obtained:
[1] = rat, in vivo, 350 mg/kg
[2] = for Qualitative Tmax (urine collection with greatest excretion): 12h urine collections, np = no peak; for Cmax (nmol excreted) / Tmax: urine; for Cmax (nmol excreted): mean ± SD; for Time of maximal urinary excretion after dosing: as stated in text/figure legend, doses not separated; for Tmax: female, Sprague Dawley, rat, po
[3] = for Plasma AUC: plasma 0–48h, trapezoidal; for Qualitative Tmax (blood collection with greatest plasma level): blood every 6h, np = no peak; for Cmax / AUC / Tmax: plasma
[4] = High dose (1000 mg/kg bw), mean ± SD
[5] = Low dose (75 mg/kg bw), mean ± SD
[6] = female, Sprague Dawley, rat, po, 75 mg/kg
[7] = female, Sprague Dawley, rat, po, 350 mg/kg
[8] = female, Sprague Dawley, rat, po, 1000 mg/kg
[9] = Medium dose (350 mg/kg bw), mean ± SD

| Molecule | Qualitative Tmax (urine collection with greatest excretion) ([2]; High dose (1000 mg/kg bw)) | Qualitative Tmax (urine collection with greatest excretion) ([2]; Low dose (75 mg/kg bw)) | Cmax (nmol excreted) ([2]; Low dose (75 mg/kg bw)) | Qualitative Tmax (urine collection with greatest excretion) ([2]; Medium dose (350 mg/kg bw)) | Cmax (nmol excreted) ([2]; Medium dose (350 mg/kg bw)) | Plasma AUC [3, 4] | Cmax (nmol excreted) ([2]; High dose (1000 mg/kg bw)) | Time of maximal urinary excretion after dosing [2] | Tmax ([2]; 350 mg/kg) | Tmax ([2]; 1000 mg/kg) | Qualitative Tmax (blood collection with greatest plasma level) ([3]; Low dose (75 mg/kg bw)) | Cmax [3, 5] | AUC [3, 6] | AUC [3, 7] | Cmax [3, 7] | Tmax [3, 7] | AUC [3, 8] | Cmax [3, 8] | Tmax [3, 8] | other results |
| --- | --- | --- | --- | --- | --- | --- | --- | --- | --- | --- | --- | --- | --- | --- | --- | --- | --- | --- | --- | --- |
| COc1ccc(-c2oc3cc(O)cc(O)c3c(=O)c2O)cc1O [4-OMe-quercetin, 4-methoxyquercetin] | – | – | – | – | – | – | – | – | – | – | – | – | – | – | – | – | – | – | – | Qualitative Tmax (urine collection with greatest excretion) [1]: 0 to 12 h |
| COc1cc(/C=C/C(=O)O)ccc1O [Ferulic acid, ferulic acid] | 0 to 24 h | np | np | 0 to 24 h | 11.7 ± 3.0 nmol excreted | trace | – | – | – | – | – | – | – | – | – | – | – | – | – | – |
| O=C(O)CNC(=O)c1ccccc1 [Hippuric acid, hippuric acid] | – | np | np | – | 700 ± 78 nmol excreted | – | 598 ± 146 nmol excreted | 12 to 24 h | 12 to 24 h | 12 to 24 h | np | np | 25.8 ± 3.08 µM·h | 47.7 ± 5.13 µM·h | 1540 ± 510 nM | 12 h | 74.3 ± 7.54 µM·h | 2060 ± 806 nM | 24 to 36 h | Amount excreted in urine, medium vs high dose ([2]; medium (350) vs high (1000 mg/kg bw) dose): no difference |
| O=C(O)[C@H]1O[C@@H](Oc2c(-c3ccc(O)c(O)c3)oc3cc(O)cc(O)c3c2=O)[C@H](O)[C@@H](O)[C@@H]1O [Quercetin glucuronide, quercetin-3-O-glucuronide] | – | np | np | – | 0.72 ± 0.14 nmol excreted | – | 1.83 ± 0.28 nmol excreted | – | 0 to 12 h | 0 to 12 h | np | np | 0.32 ± 0.01 µM·h | 0.34 ± 0.05 µM·h | 8 ± 2 nM | 6 h | 0.57 ± 0.14 µM·h | 23 ± 5 nM | 6 h | – |
| COc1cc(C(=O)O)cc(OC)c1O [Syringic acid, syringic acid] | – | – | 1.03 ± 0.30 nmol excreted | – | 12.2 ± 3.0 nmol excreted | trace | 35.1 ± 6.0 nmol excreted | ≤ 12 h | 0 to 12 h | 0 to 12 h | – | – | – | – | – | – | – | – | – | Tmax ([2]; 75 mg/kg): 0 to 12 h |
| Caffeic acid glucuronide | 0 to 12 h | np | np | 0 to 12 h | 261 ± 50 nmol excreted | 0.92 ± 0.20 ^y uM*h | 379 ± 134 nmol excreted | – | – | – | np | np | – | – | – | – | – | – | – | Qualitative Tmax (blood collection with greatest plasma level) ([3]; High dose (1000 mg/kg bw)): 6 h; Cmax [3, 4]: 84 ± 20 nM; Plasma AUC [3, 5]: 0.36 ± 0.06 ^w uM*h; Qualitative Tmax (blood collection with greatest plasma level) ([3]; Medium dose (350 mg/kg bw)): 6 h; Plasma AUC [3, 9]: 0.55 ± 0.11 ^x uM*h; Cmax [3, 9]: 21 ± 8 nM |
